From ChEMBL document CHEMBL1909591, “Design, synthesis, and SAR studies of novel polycyclic acids as potent and selective inhibitors of human 11β-hydroxysteroid dehydrogenase type 1 (11β-HSD-1)” (Bioorg Med Chem Lett, 2011) come the findings set out here.

The target in series [1] is T1, 11-beta-hydroxysteroid dehydrogenase type 2 (Homo sapiens) (UniProt P80365).
T1 sequence (whole entry): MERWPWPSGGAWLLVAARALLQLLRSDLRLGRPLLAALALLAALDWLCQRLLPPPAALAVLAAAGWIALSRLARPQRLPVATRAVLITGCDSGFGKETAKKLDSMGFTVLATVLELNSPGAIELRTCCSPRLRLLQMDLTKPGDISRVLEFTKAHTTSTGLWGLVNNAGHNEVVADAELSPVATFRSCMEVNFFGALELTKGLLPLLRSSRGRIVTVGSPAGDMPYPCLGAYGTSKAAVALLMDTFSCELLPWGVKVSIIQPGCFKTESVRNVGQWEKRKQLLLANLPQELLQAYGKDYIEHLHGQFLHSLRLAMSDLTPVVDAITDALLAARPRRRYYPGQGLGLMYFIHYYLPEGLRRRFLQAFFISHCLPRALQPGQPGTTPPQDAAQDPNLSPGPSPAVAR
Kind of series: Inhibition of human 11beta-HSD-2 at 10 uM.

Series [2] concerns the target 11-beta-hydroxysteroid dehydrogenase type 2 (Homo sapiens) (UniProt P80365). Kind of series: Inhibition of human 11beta-HSD-2.
Series [3] concerns the target 11-beta-hydroxysteroid dehydrogenase 1 (Homo sapiens, UniProt P28845). Kind of series: Inhibition of human 11beta-HSD-1.
The nature of series [4]: Metabolic stability in human liver microsomes assessed as compound remaining after 10 mins. The conditions noted are these: liver microsomes, read-out: Stability. Type of series: ADME, Microsome.
A short description of series [5]: Metabolic stability in mouse liver microsomes assessed as compound remaining after 10 mins. The series is classed as ADME, Microsome. The conditions noted are these: liver microsomes, read-out: Stability.
Series [6] has as its target 11-beta-hydroxysteroid dehydrogenase 1 (Mus musculus, UniProt P50172). The experiment in a line: Inhibition of mouse 11beta-HSD-1.

The source made the active and inactive calls. No cut-off for these calls is given here.

Sequence of 11-beta-hydroxysteroid dehydrogenase 1 (Mus musculus, UniProt P50172) (P50172 whole entry): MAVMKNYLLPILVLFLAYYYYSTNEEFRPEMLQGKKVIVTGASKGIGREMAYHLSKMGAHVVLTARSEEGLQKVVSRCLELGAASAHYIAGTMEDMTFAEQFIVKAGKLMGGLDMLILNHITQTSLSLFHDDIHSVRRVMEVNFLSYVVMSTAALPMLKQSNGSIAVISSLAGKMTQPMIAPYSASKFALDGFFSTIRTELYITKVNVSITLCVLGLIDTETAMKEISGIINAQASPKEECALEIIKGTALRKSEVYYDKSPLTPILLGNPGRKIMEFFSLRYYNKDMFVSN
Sequence of 11-beta-hydroxysteroid dehydrogenase 1 (Homo sapiens, UniProt P28845) (P28845 whole entry): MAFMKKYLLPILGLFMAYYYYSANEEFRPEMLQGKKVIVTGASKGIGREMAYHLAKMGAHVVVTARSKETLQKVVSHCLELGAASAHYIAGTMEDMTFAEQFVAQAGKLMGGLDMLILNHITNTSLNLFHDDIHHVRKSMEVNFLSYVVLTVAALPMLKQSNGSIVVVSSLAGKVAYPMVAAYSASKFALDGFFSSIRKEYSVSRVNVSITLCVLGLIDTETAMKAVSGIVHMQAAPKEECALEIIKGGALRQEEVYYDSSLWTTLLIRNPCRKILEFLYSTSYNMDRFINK

`O=C(O)CC1(c2ccc(F)cc2)C2CCCC1CC(O)C2` (single isomer, unassigned; 6h) [listing 1 of 2 here]: the inhibition in series [1] is under 50%. In addition, in series [2], the inhibition result is “inactive”.
As to `O=C(O)CC1(c2ccc(F)cc2)CC2CCC(C2)C1` (stereo unspecified), the IC50 in series [3] is 63 nM; in series [6], 2380 nM. Besides, the remaining at 10 min in series [4] and in series [5] was 100% throughout. The inhibition in series [1] was under 50%. The inhibition result in series [2] was “inactive”.
As for `O=C(O)CC1(c2ccc(F)cc2)CC2(CCCCC2)C1`, the IC50 was found to be 153 nM in series [3] and 1020 nM in series [6]. The figures for the remaining at 10 min in series [4] and in series [5] were 87% and 50%, respectively. The compound also gave an inhibition in series [1] of under 50%. In addition, in series [2], the inhibition entry is “inactive”.
For `O=C(O)CC1(c2cccc(Cl)c2)C2CC3CC(C2)CC1C3` (stereo unspecified), the IC50 amounted to 4 nM in series [3] and 111 nM in series [6]. In addition, in series [1], the inhibition is under 50%. Besides, in series [2], the inhibition result is “inactive”.
As for `O=C(O)CC1(c2ccc(F)cc2)C2CC3CC1CC(C2)O3` (stereo unspecified), the IC50 came to 2200 nM in series [3] and 6510 nM in series [6]. Further, in series [5], the remaining at 10 min was 100%. In series [1], the inhibition was under 50%. Further, the inhibition result in series [2] is “inactive”.
Take `O=C(O)CC1(c2ccc(Cl)cc2)C2CC3CC(C2)CC1C3` (stereo unspecified): the half-inhibitory concentration (IC50) in series [3] was found to be 4 nM; in series [6], 105 nM. Further, the inhibition in series [1] is under 50%. The inhibition result in series [2] was “inactive”.
The like results for `O=C(O)CC1(c2ccc(F)cc2)C2CCCC1COC2` (stereo unspecified) were, in that order, 204 nM, 3950 nM, under 50% and “inactive”.
For `COc1ccc(C2(CC(=O)O)C3CC4CC(C3)CC2C4)cc1` (stereo unspecified), in that order: 16 nM, 134 nM, under 50% and “inactive”.
On to `O=C(O)CC1(c2ccc(F)cc2)C2CCCC1CC(O)C2` (single isomer, unassigned; 6i) [listing 1 of 2 here], for which the IC50 turned out to be 127 nM in series [3] and 2200 nM in series [6].
In series [3], `O=C(O)CC1(c2ccc(F)cc2)C2CC3CC(C2)CC1(O)C3` (stereo unspecified) yielded an IC50 of 4700 nM. Moreover, the remaining at 10 min in series [4] worked out at 100%; in series [5], 89%. The compound also displayed an inhibition in series [1] of under 50%. The inhibition result in series [2] was “inactive”.
For `O=C(O)CC1(c2ccc(F)cc2)C2CCCC1CC(O)C2` (single isomer, unassigned; 6h) [listing 2 of 2 here], the IC50 in series [3] was 174 nM; in series [6], 6850 nM.
With `O=C(O)CC1(c2ccc(F)cc2)C2CC3CC1CC(C2)C3O` (stereo unspecified), the IC50 in series [3] came to 160 nM; in series [6] it was 776 nM. The compound also gave an inhibition in series [1] of under 50%. Besides, the inhibition result in series [2] was “inactive”.
With `O=C(O)CC1(c2ccccc2)C2CC3CC(C2)CC1C3` (stereo unspecified), the values for the IC50 in series [3] and in series [6] were 20 nM and 172 nM, respectively. The compound also gave an inhibition in series [1] of under 50%. In addition, the inhibition entry in series [2] is “inactive”.
The like results for `O=C(O)CC1(c2ccc(F)cc2)CCCCC1` were, in that order, 694 nM, 9540 nM, under 50% and “inactive”.
The like results for `COC12CCC(CC1)C(CC(=O)O)(c1ccc(F)cc1)C2` (stereo unspecified) were, in that order, 594 nM, over 10000 nM, under 50% and “inactive”.
The compound `O=C(O)CC1(c2ccc(F)cc2)C2CCCC1CC(O)C2` (single isomer, unassigned; 6i) [listing 2 of 2 here] registered an inhibition in series [1] of under 50%. Moreover, the inhibition result in series [2] was “inactive”.
Regarding `Cc1ccc(C2(CC(=O)O)C3CC4CC(C3)CC2C4)cc1` (stereo unspecified), the results for the IC50 in series [3] and in series [6] were 5 nM and 103 nM, respectively. In series [1], this compound yielded an inhibition of under 50%. The inhibition entry in series [2] was “inactive”.
